In patent US8530513B1, “Pharmaceutical uses of diterpene excavatolide B from a coral or an analogue thereof” (National Sun Yat-Sen University, priority 2012, dated 2013):

Assays:
IL-6 = assay: LPS-induced IL-6 expression in mouse bone marrow-derived dendritic cells, ELISA; format: cell-based; details: for IL-6 expression in LPS-stimulated dendritic cells: LPS 100 ng/ml plus BrD1 at different concentrations, 24 h
Source text: For mouse bone marrow-derived DCs (BMDCs), five to six-week-old female C57BL/6JNarl mice were purchased from the National Laboratory Animal Center, Taiwan and kept under SPF conditions. BMDCs were generated from bone marrow cells of C57BL/6 mice as described previously (Yin S Y, Wang W H, Wang B X, Aravindaram K, Hwang P I, Wu H M, Yang N S. BMC genomics 2010, 11:612). In brief, bone marrow was isolated from femurs and tibiae which were then flushed with RPMI-1640 medium using a syringe with a 0.45-mm needle on Day 0. Red blood cells in suspension were lysed for […] with ACK lysing buffer (150 mM NH4Cl, 1.0 mM KHCO3, 0.1 mM EDTA). Bone marrow cells were suspended at a density of 1×10^7 cells/30 ml in RPMI-1640 containing 10% FBS, 2 mM L-glutamine, 1% of nonessential amino acids, 100 U/mL penicillin and 100 μg/mL streptomycin supplemented with 20 ng/mL of mGM-CSF in 15-cm dishes at 37° C. with 5% CO2. On day 2, two-thirds of the medium was removed and 30 mL fresh medium with mGM-CSF was added to the cells. On day 5, culture plates were gently swirled and the floating and loosely adherent cells were discarded. Aliquots of 75% culture media were replenished with 20 ng/mL mGM-CSF and 20 ng/mL mIL-4. On day 7, mouse BMDCs (95% pure CD11b and MHC II) were harvested and incubated in RPMI 1640 medium containing 1 mM sodium pyruvate, 0.1 mM nonessential amino acids, 100 U/ml penicillin, 100 μg/ml streptomycin, and supplemented with 10% fetal bovine serum (Invitrogen, Carlsbad, Calif.) for 24 h at 37° C. with or without test chemicals in the presence or absence of LPS (100 ng/ml).
BMDCs were treated with or without test chemicals in the presence or absence of LPS (100 ng/ml) for 24 h at 37° C. Aliquots of supernatants from DC cultures were assayed for IL-6 and TNF-α using commercial ELISA kits (R&D Systems, Minneapolis, Minn.) following the manufacturer's recommendations.
Several studies have reported that the secretion of specific cytokines, including IL-1β, TNF-α and IL-6 by keratinocytes and various immune cells is involved in cutaneous inflammation (Nestle F O, Di Meglio P, Qin J Z, Nickoloff B J. Nature reviews Immunology 2009, 9:679-691; De Vry C G, Valdez M, Lazarov M, Muhr E, Buelow R, Fong T, Iyer S. J Invest Dermatol 2005, 125:473-481; Cumberbatch M, Dearman R J, Kimber I. Immunology 1996, 87:513-518). In order to investigate the anti-inflammatory effect of BrD1 on cytokine expression, mouse bone marrow-derived dendritic cells were used to evaluate the inhibitory effect of BrD1 on LPS-induced expressions of TNF-α and IL-6. In our time-course study for expression of TNF-α and IL-6, after LPS stimulation, a high expression of TNF-α and IL-6 was maintained at 24 h (FIG. 6A). We therefore chose 24 h as the time point at which to assess the expression of TNF-α and IL-6.

[1] = test system: abdominal skins of female C57BL/6 mice; assay: TPA-induced vascular permeability assay (Evans blue extravasation); format: in vivo, mouse; details: Evans blue OD 620 nm
Method: TPA-induced vascular permeability assay was modified and performed as previously described (Thurston G, Suri C, Smith K, McClain J, Sato T N, Yancopoulos G D, McDonald D M. Science 1999, 286:2511-2514). Shaved abdominal skins of female C57BL/6JNarl mice were topically treated with vehicle (acetone, 200 μl/site) or TPA (10 nmol in 200 μl acetone/site) for 6 h or treated with TPA for 10 min and subsequently treated for 6 h with the indicated concentrations of BrD1. Abdominal skins of untreated mice were used as the control group. One percent Evans blue dye (100 μl) was injected into mouse tail veins. After 20 min, anatomical appearances of mouse abdomens from the various treatments were photographically recorded. Abdominal skins representative of each test group were removed, turned over and photographed. Evans blue dye extravasated into the skins was extracted by incubation of the skin samples in 99% N,N-dimethyl-formamide overnight at 60° C. and optical density was measured at 620 nm.
Acute inflammatory reactions are known to include changes in vascular permeability, edema and cellular infiltration (Rao T S, Currie J L, Shaffer A F, Isakson P C. Inflammation 1993, 17:723-741). In order to evaluate the anti-inflammatory effect of BrD1 on TPA-induced dermatitis in a murine model, we initially evaluated the possible inhibitory effect of BrD1 on TPA-induced vascular permeability. […]

SMILES: CCCC(=O)O[C@H]1C/C(C)=C\[C@@H]2OC(=O)[C@]3(C)O[C@]23[C@@H](OC(C)=O)[C@H]2[C@@H](C)[C@@H](O)C[C@H](OC(C)=O)[C@]2(C)[C@H]1OC(C)=O [BrD1, excavatolide B]
- inhibition of LPS-induced IL-6 expression (structure-activity relationship) (IL-6; DCs co-treated with LPS and BrDs at 20 μM): significantly inhibited the expression of cytokine IL-6
- IL-6 expression in LPS-stimulated dendritic cells (IL-6): strongly inhibited IL-6 expression
- IL-6 expression in LPS-stimulated dendritic cells (IL-6; listed as Excavatolide B): strongly inhibits IL-6 expression
- level of inhibition of TPA-induced vascular permeability ([1]; 0.5 mg/site topical for 6 h after TPA (10 nmol) 10 min): approximately 58%
- level of inhibition of TPA-induced vascular permeability ([1]; 1 mg/site topical for 6 h after TPA (10 nmol) 10 min): ~77%
